Test results: PMC11783063, “Design, synthesis, and apoptotic antiproliferative action of new benzimidazole/1,2,3-triazole hybrids as EGFR inhibitors” (Frontiers in Chemistry, 2025)
Where two headings read alike, the source gives them in different places.

Experiments:
[1] = system: A-549 (lung cancer cell line); test: Antiproliferative assay, A-549; type: cell-based, human; conditions: read-out: Antiproliferative activity IC50 ± SEM, A-549
Source text: (§1) Refer to Supplementary Appendix A for more information.
(§2) DMSO (0.1%) was used as control.

[2] = system: MCF-7 (breast cancer cell line); test: Antiproliferative assay, MCF-7; type: cell-based, human; conditions: read-out: Antiproliferative activity IC50 ± SEM, MCF-7
Source text: as §1, §2

[3] = Cell viability assay (MTT) on MCF-10A normal cells; conditions: human, MCF-10A normal mammary gland epithelial cells
Description: (§3) The medium in which cells were propagated contained Dulbecco's modified Eagle's medium (DMEM)/ Ham's F-12 medium (1:1) supplemented with epidermal growth factor (20 ng/mL), hydrocortisone (500 ng/mL), insulin (10 μg/mL), 2 mM glutamine and 10% foetal calf serum. After every 2-3 days, the cells were passed using trypsin ethylenediamine tetra acetic acid (EDTA). The cells were seeded at a density of 10^4 cells mL^-1 in flat-bottomed culture plates containing 96 wells each. After 24 h, medium was removed from the plates and the compounds in (in 0.1% DMSO) were added (in 200 μL medium to yield a final concentration of 0.1% v/v) to the wells of plates. A single compound was designated with four wells followed by incubation of plates for 96h at 37°C. After incubation, medium was removed completely from the plates followed by addition of MTT (0.4 mg/mL in medium) to each well and subsequent incubation of plates for 3h. MTT (along with the medium) was removed and DMSO (150μL) was added to each well of the culture plates, followed by vortexing and subsequent measurement of absorbance (at 540 nm) using microplate reader.

EGFR = EGFR (Homo sapiens, UniProt P00533); test: EGFR-TK inhibitory assay
EGFR, sequence (P00533 669-1210): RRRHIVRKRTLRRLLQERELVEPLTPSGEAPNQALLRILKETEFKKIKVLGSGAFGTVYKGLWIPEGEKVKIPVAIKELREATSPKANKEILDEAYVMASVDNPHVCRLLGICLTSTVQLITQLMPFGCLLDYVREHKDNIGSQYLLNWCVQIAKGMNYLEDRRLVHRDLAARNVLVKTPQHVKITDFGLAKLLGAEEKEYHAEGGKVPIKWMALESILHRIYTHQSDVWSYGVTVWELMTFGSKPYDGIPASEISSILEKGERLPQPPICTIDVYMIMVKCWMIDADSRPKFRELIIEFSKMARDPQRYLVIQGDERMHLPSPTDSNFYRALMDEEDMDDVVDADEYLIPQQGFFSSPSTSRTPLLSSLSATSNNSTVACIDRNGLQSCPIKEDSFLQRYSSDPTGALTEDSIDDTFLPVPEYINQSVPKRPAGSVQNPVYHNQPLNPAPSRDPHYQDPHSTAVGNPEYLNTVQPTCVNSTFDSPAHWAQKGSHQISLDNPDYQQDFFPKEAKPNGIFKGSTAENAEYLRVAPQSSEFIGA
Description: To record autophosphorylation level, EGFR kinase assay was carried out on the basis of DELFIA/Time-Resolved Fluorometry. […] Each compound (10 µL) was incubated with recombinant enzyme (10 µL, 5 ng for EGFR, 1:80 dilution in 100 mM HEPES) for 10 min at 25 °C, subsequent to the addition of 5X buffer (10 µL, containing 2 mM MnCl2, 100 µM Na3VO4, 20 mM HEPES and 1 mM DTT) and ATP-MgCl2 (20 µL, containing 0.1 mM ATP and 50 mM MgCl2) and incubation for 1h. The negative and positive controls were included in each plate by the incubation of enzyme either with or without ATP-MgCl2. The liquid was removed after incubation and the plates were washed thrice using wash buffer. Europium-tagged antiphosphotyrosine antibody (75 µL, 400 ng) was added to each well followed by incubation of 1h and then washing of the plates using buffer. […] The autophosphorylation percentage inhibition by compounds was calculated using the following equation:

[4] = system: four human cancer cell lines (HT-29, A-549, MCF-7, Panc-1); test: Antiproliferative assay, mean over four cancer cell lines (GI50); conditions: for IC50: read-out: Average IC50 (GI50)
Description: To calculate the total nuclear DNA, a fluorescent dye (propidium iodide, PI) is used which can attach to the DNA, thus offering a quick and precise technique. PI cannot pass through the cell membrane and its signal intensity can be considered as directly proportional to quantity of cellular DNA. Cells whose cell membranes are damaged or have changed permeability are counted as dead ones. […] The medium was removed; the compounds were added to the plates at 10 µM concentrations (in 0.1% DMSO) in triplicates, followed by incubation for 48 h. DMSO (0.1%) was used as control. After incubation, medium was removed followed by the addition of PI (25 µl, 50µg/mL in water/medium) to each well of the plates. At -80 °C, the plates were allowed to freeze for 24 h, followed by thawing at 25 °C. A fluorometer (Polar-Star BMG Tech) was used to record the readings at excitation and emission wavelengths of 530 and 620 nm for each well. The percentage cytotoxicity of compounds was calculated using the following formula:

[5] = system: Panc-1 (pancreatic cancer cell line); test: Antiproliferative assay, Panc-1; type: cell-based, human; conditions: read-out: Antiproliferative activity IC50 ± SEM, Panc-1
Source text: as §1, §2

[6] = system: HT-29 (colon cancer cell line); test: Antiproliferative assay, HT-29; type: cell-based, human; conditions: read-out: Antiproliferative activity IC50 ± SEM, HT-29
Source text: as §1, §2

[7] = system: MCF-10A normal human mammary gland epithelial cell line; conditions: 50 µM
Description: as §3

[8] = mean IC50 of A-549, MCF-7, Panc-1, HT-29

Molecule | IC50 ([1]; Homo sapiens, A549) [µM] | IC50 ([2]; Homo sapiens, MCF7) [µM] | IC50 (EGFR) [µM] | IC50 ([4]; Homo sapiens) [µM] | IC50 ([5]; Homo sapiens, PANC-1) [µM] | IC50 ([6]; Homo sapiens) [µM] | Potency relative to 10e (GI50), fold less potent ([4]; GI50 vs 10e) [fold] | IC50 ([1]; A-549) [µM] | IC50 ([2]; MCF-7) [µM] | IC50 ([5]; Panc-1) [µM] | IC50 [6] [µM] | IC50 [4, 8] [µM] | viability at 4 days, 50 µM [3] [%] | Cell viability % [7] [%]
O=[N+]([O-])c1cccc(-n2cc(CSc3nc4ccccc4[nH]3)nn2)c1 [6e, 2-(((1-(3-Nitrophenyl)-1H-1,2,3-triazol-4-yl)methyl)thio)-1H-benzimidazole] | 0.04 ± 0.003 | 0.036 ± 0.003 | 0.089 ± 0.006 | 0.038 | 0.038 ± 0.003 | 0.038 ± 0.003 |  |  |  |  |  |  | 86 | 
Cc1ccc(-n2cc(CSc3nc4ccccc4[nH]3)nn2)cc1 [6f, 2-(((1-(p-Tolyl)-1H-1,2,3-triazol-4-yl)methyl)thio)-1H-benzimidazole] | 0.081 ± 0.007 | 0.078 ± 0.007 |  | 0.08 | 0.08 ± 0.007 | 0.082 ± 0.007 |  |  |  |  |  |  | 90 | 
Clc1ccc(-n2cc(CSc3nc4ccccc4[nH]3)nn2)cc1 [6b, 2-(((1-(4-Chlorophenyl)-1H-1,2,3-triazol-4-yl)methyl)thio)-1H-benzimidazole] | 0.047 ± 0.004 | 0.045 ± 0.004 |  | 0.047 | 0.048 ± 0.004 | 0.048 ± 0.004 |  |  |  |  |  |  | 87 | 
C#Cc1cccc(Nc2ncnc3cc(OCCOC)c(OCCOC)cc23)c1 [Erlotinib, reference compound] |  |  |  | 0.033 |  |  |  |  |  |  |  |  |  | 
O=[N+]([O-])c1ccc(-n2cc(CSc3nc4ccccc4[nH]3)nn2)cc1 [6d, 2-(((1-(4-Nitrophenyl)-1H-1,2,3-triazol-4-yl)methyl)thio)-1H-benzimidazole] | 0.085 ± 0.007 | 0.083 ± 0.007 |  | 0.085 | 0.086 ± 0.008 | 0.086 ± 0.008 |  |  |  |  |  |  | 93 | 
Brc1ccc(-n2cc(CSc3nc4ccccc4[nH]3)nn2)cc1 [6c, 2-(((1-(4-Bromophenyl)-1H-1,2,3-triazol-4-yl)methyl)thio)-1H-benzimidazole] | 0.096 ± 0.009 | 0.09 ± 0.008 |  | 0.094 | 0.096 ± 0.009 | 0.094 ± 0.009 |  |  |  |  |  |  | 91 | 
c1ccc(-n2cc(CSc3nc4ccccc4[nH]3)nn2)cc1 [6a, 2-(((1-Phenyl-1H-1,2,3-triazol-4-yl)methyl)thio)-1H-benzimidazole] | 0.089 ± 0.008 | 0.085 ± 0.007 |  | 0.088 | 0.089 ± 0.008 | 0.088 ± 0.008 |  |  |  |  |  |  | 84 | 
COc1cccc(-n2cc(CSc3nc4ccccc4[nH]3)nn2)c1 [6h, 2-(((1-(3-Methoxyphenyl)-1H-1,2,3-triazol-4-yl)methyl)thio)-1H-benzimidazole] | 0.069 ± 0.006 | 0.066 ± 0.006 |  | 0.068 | 0.069 ± 0.006 | 0.068 ± 0.006 |  |  |  |  |  |  | 91 | 
COc1ccc(-n2cc(CSc3nc4ccccc4[nH]3)nn2)cc1 [6g, 2-(((1-(4-Methoxyphenyl)-1H-1,2,3-triazol-4-yl)methyl)thio)-1H-benzimidazole] | 0.072 ± 0.007 | 0.069 ± 0.006 |  | 0.072 | 0.072 ± 0.007 | 0.074 ± 0.007 |  |  |  |  |  |  | 89 | 

Second part, led by results:

IC50 ([1]; Homo sapiens, A549) [µM] | IC50 ([2]; Homo sapiens, MCF7) [µM] | IC50 (EGFR) [µM] | IC50 ([4]; Homo sapiens) [µM] | IC50 ([5]; Homo sapiens, PANC-1) [µM] | IC50 ([6]; Homo sapiens) [µM] | Potency relative to 10e (GI50), fold less potent ([4]; GI50 vs 10e) [fold] | IC50 ([1]; A-549) [µM] | IC50 ([2]; MCF-7) [µM] | IC50 ([5]; Panc-1) [µM] | IC50 [6] [µM] | IC50 [4, 8] [µM] | Molecule | viability at 4 days, 50 µM [3] [%] | Cell viability % [7] [%]
0.037 ± 0.003 | 0.034 ± 0.003 | 0.086 ± 0.006 | 0.036 | 0.036 ± 0.003 | 0.038 ± 0.003 | 1.5 |  |  |  |  |  | O=[N+]([O-])c1ccc(-n2cc(Cn3c(SCc4ccccc4)nc4ccccc43)nn2)cc1 [10d] | 89 | 
 |  |  |  |  |  |  | 0.048 ± 0.004 | 0.044 ± 0.003 | 0.048 ± 0.004 | 0.048 ± 0.004 |  | 2-(Benzylthio)-1-((1-(4-chlorophenyl)-1H-1,2,3-triazol-5-yl)methyl)-1H-benzimidazole [10b] |  | 86
0.044 ± 0.004 | 0.042 ± 0.004 |  | 0.043 | 0.044 ± 0.004 | 0.045 ± 0.004 |  |  |  |  |  |  | NS(=O)(=O)c1ccc(-n2cc(Cn3c(SCc4ccccc4)nc4ccccc43)nn2)cc1 [10i] | 91 | 
 |  |  |  |  |  |  | 0.059 ± 0.005 | 0.056 ± 0.005 | 0.06 ± 0.005 | 0.06 ± 0.005 | 0.059 | 2-(Benzylthio)-1-((1-phenyl-1H-1,2,3-triazol-5-yl)methyl)-1H-benzimidazole [10a] |  | 87
0.034 ± 0.003 | 0.032 ± 0.003 | 0.082 ± 0.005 | 0.034 | 0.034 ± 0.003 | 0.035 ± 0.003 |  |  |  |  |  |  | COc1ccc(-n2cc(Cn3c(SCc4ccccc4)nc4ccccc43)nn2)cc1 [10g] | 90 | 
 |  |  |  |  |  |  | 0.076 ± 0.007 | 0.072 ± 0.007 | 0.076 ± 0.007 | 0.076 ± 0.007 | 0.075 | 2-(Benzylthio)-1-((1-(3-methoxyphenyl)-1H-1,2,3-triazol-5-yl)methyl)-1H-benzimidazole [10h] |  | 89
 |  |  |  |  |  |  | 0.055 ± 0.005 | 0.052 ± 0.005 | 0.054 ± 0.005 | 0.054 ± 0.005 | 0.054 | 2-(Benzylthio)-1-((1-(4-bromophenyl)-1H-1,2,3-triazol-5-yl)methyl)-1H-benzimidazole [10c] |  | 92
 |  |  |  |  |  |  | 0.066 ± 0.006 | 0.063 ± 0.006 | 0.065 ± 0.006 | 0.065 ± 0.006 | 0.065 | 2-(Benzylthio)-1-((1-(p-tolyl)-1H-1,2,3-triazol-5-yl)methyl)-1H-benzimidazole [10f] |  | 89
